# Measurements published in PMC9828099, “Aromatic disulfides as potential inhibitors against interaction between deaminase APOBEC3G and HIV infectivity factor” (Acta Biochimica et Biophysica Sinica, 2022).
# Legend:
# HIV-1 = conditions: MT4 and MAGI cells; cited from earlier work
# A3G-sNTD = target: T1, A3G-sNTD (Homo sapiens, UniProt Q9HC16); assay: SPR binding of small molecules to A3G-sNTD; conditions: read-out: KD, binding affinity to A3G-sNTD
# T1 sequence (Q9HC16 1-196): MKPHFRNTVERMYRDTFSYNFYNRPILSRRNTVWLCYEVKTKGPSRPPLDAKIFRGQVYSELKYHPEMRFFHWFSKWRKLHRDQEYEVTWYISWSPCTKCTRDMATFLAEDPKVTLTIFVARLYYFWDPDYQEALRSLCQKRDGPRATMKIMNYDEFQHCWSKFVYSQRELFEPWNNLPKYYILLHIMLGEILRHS
# Description: (§1) Small molecules in the concentration of 500 μM were injected at 30 μL/min. The contact time is 100 s and dissociation time is 120 s. The chip was regenerated by glycine (pH 1.5) at a flow rate of 30 μL/min (30 s contact time). Then small molecules with high RU were selected to perform the 2 ^nd round screening. […] The data analyses were performed by BIAcore Evaluation.
# rVif = target: T2, rVif (Human immunodeficiency virus type 1 group M subtype B, UniProt P12504); assay type: binding, HIV-1; conditions: SPR 1st round screening, small molecules at 500 μM
# T2 construct: The cDNAs of full-length Vif (residues 1–192) was sub-cloned into the vector pET28a; made in house
# Description: as §1
# [1] = test system: interaction between A3G and Vif; parameters: method as in PMID 25724652; conditions: read-out: IC50, block of interaction between A3G and Vif; cited from earlier work
# Vif = conditions: fluorescent intensity of 293T cells; read-out: IC50, inhibition of Vif activity; cited from earlier work
# [2] = target: full-length APOBEC3G (A3G-FL) (UniProt Q9HC16); assay: SPR
# T2 sequence (P12504 whole entry, the tested form may be a part): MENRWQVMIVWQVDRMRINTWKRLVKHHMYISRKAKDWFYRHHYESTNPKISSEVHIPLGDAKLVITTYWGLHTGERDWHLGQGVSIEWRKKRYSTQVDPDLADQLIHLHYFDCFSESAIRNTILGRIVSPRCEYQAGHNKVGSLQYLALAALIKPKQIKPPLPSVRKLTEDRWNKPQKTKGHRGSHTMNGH
compound,measurement,setting,value
O=C(O)Cn1c2c(c3c1=C(c1ccc(O)c(O)c1)C(=O)c1cc(O)c(O)cc1-3)-c1cc(O)c(O)cc1C(=O)C=2c1ccc(O)c(O)c1 [Baculiferin L],"IC50, HIV-1 replication",HIV-1,0.5 to 7 µg/mL
O=C(O)Cn1c2c(c3c1=C(c1ccc(O)c(O)c1)C(=O)c1cc(O)c(OS(=O)(=O)O)cc1-3)-c1cc(O)c(O)cc1C(=O)C=2c1ccc(O)c(O)c1 [Baculiferin M],"IC50, HIV-1 replication",HIV-1,0.5 to 7 µg/mL
CCCCn1c(SCc2c(C)noc2C)nc2cc(S(N)(=O)=O)ccc21 [MM-2],Kd,A3G-sNTD,19.9 ± 11 µM
same,relative response value of binding to rVif,rVif,130.4 RU
C/C(=C/C(=O)c1cccnc1)Nc1ccc(O)cc1 [N.41],IC50,[1],2.18 µM
COc1ccccc1NC(=O)c1ccccc1Sc1ccc([N+](=O)[O-])cc1 [RN-18],IC50,Vif,4.5 µM
Vif-CBFβ-ELOB-ELOC (VCBC) complex (from UniProt P12504;Q13951;Q15370;Q15369),Kd,[2],0.00071 µM
